Data published in publication PMC4657098, “A Review of the Updated Pharmacophore for the Alpha 5 GABA(A) Benzodiazepine Receptor Model” (International Journal of Medicinal Chemistry, 2015).
Where two headings read alike, the source gives them in different places.

Legend:
Set-up in all cases: expressed in transfected cells
α6β3γ2 GABAA/BzR = α6β3γ2 GABAA/BzR (Homo sapiens, UniProt P18507+Q16445); assay: Competition binding to HEK cell membranes, α6β3γ2
α5β3γ2 GABAA/BzR = α5β3γ2 GABAA/BzR (Homo sapiens, UniProt P18507+P31644); assay: Competition binding to HEK cell membranes, α5β3γ2
α3β3γ2 GABAA/BzR = α3β3γ2 GABAA/BzR (Homo sapiens, UniProt P18507+P34903); assay: Competition binding to HEK cell membranes, α3β3γ2
α2β3γ2 GABAA/BzR = α2β3γ2 GABAA/BzR (Homo sapiens, UniProt P18507+P47869); assay: Competition binding to HEK cell membranes, α2β3γ2
α1β3γ2 GABAA/BzR = α1β3γ2 GABAA/BzR (Homo sapiens, UniProt P14867+P18507); assay: Competition binding to HEK cell membranes, α1β3γ2

Compound	Ki (α6β3γ2 GABAA/BzR; Ki α6) [nM]	Ki (α5β3γ2 GABAA/BzR; read-out: Ki α5) [nM]	Ki (α3β3γ2 GABAA/BzR; read-out: Ki α3) [nM]	Ki (α5β3γ2 GABAA/BzR; Ki α5) [nM]	Ki (α2β3γ2 GABAA/BzR; Ki α2) [nM]	Ki (α1β3γ2 GABAA/BzR; Ki α1) [nM]	Ki (α3β3γ2 GABAA/BzR; Ki α3) [nM]	Ki (α6β3γ2 GABAA/BzR; read-out: Ki α6) [nM]	Ki (α2β3γ2 GABAA/BzR; read-out: Ki α2) [nM]	Ki (α1β3γ2 GABAA/BzR; read-out: Ki α1) [nM]
CCOc1cc2c(cn1)[nH]c1ccccc12 [3 EBC, 3-Ethoxy-beta-carboline]	1000	826	28.2							
COCc1c(C(=O)OC(C)C)ncc2[nH]c3ccc(OCc4ccccc4)cc3c12 [ABECARNIL, reference compound]	1000			6	15.3	12.4	7.5			
CC(C)(C)OC(=O)c1ncn2c1[C@@H]1CCCN1C(=O)c1c(Br)cccc1-2 [BRETAZENIL, reference compound]	12.7			0.5	0.64	0.35	0.2			
CN1Cc2c(C(=O)OC3CC3)ncn2-c2ccc(Cl)cc2C1=O [CD-214]		9.8	42.5					168	48.2	16.4
COc1ccc(-n2nc3c4ccccc4[nH]cc-3c2=O)cc1 [CGS9895, reference compound]								9.3		0.21
O=C1C2C=Nc3ccccc3C2=NN1c1ccc(Cl)cc1 (stereo not shown) [CGS9896, reference compound]	181					0.28				
CC[C@@H](C)OC(=O)c1cc2c(cn1)[nH]c1ccccc12 [CM-A49 (R)]		69	43					1000	32.5	7.7
CC[C@H](C)OC(=O)c1cc2c(cn1)[nH]c1ccccc12 [CM-A50 (S)]		144	88					1000	59	17
CCCCc1cc2c(cn1)[nH]c1ccc(F)cc12 [CM-A58]		1000	184					1010	120	16
CCC(C)OC(=O)c1cc2c(cn1)[nH]c1ccccc12 (stereo not shown) [CM-A64]		216	116					1000	60	18
CN1Cc2c(C(=O)OC(C)(C)C)ncn2-c2ccc(N3CCCC3)cc2C1=O [DM-139]		9.25	169					325		5.8
COc1ccc2c(c1)C(=O)N(C)Cc1c(C(=O)OC(C)(C)C)ncn1-2 [DM-215]		0.293	7.42					8.28		6.74
CN1Cc2c(C(=O)OC(C)(C)C)ncn2-c2ccc(O)cc2C1=O [DM-239]		0.14	0.53					6.89		1.5
O=C1CN=C(c2ccccc2Cl)c2cc(Br)ccc2N1 [DM-II-72]		2.02							1.37	
Cc1nnc2n1-c1ccc(Br)cc1C(c1ccccc1Cl)=NC2 [DM-II-90 (C17H12N4BrCl)]		0.37	0.63					5000	1	
O=C(O)c1ncn2c1CN=C(c1ccccc1)c1cc(Br)ccc1-2 [DM-III-01]		4.73							12	
O=[N+]([O-])c1ccc2[nH]c3cnc([N+](=O)[O-])cc3c2c1 [EDC-I-071]		314						5000	83.1	12.9
S=C=Nc1ccc2[nH]c3cnc(N=C=S)cc3c2c1 [EDC-I-093]		2910						5000	423	13.6
CCOC(=O)c1ncc2[nH]c3ccc(OCc4cccc5ccccc45)cc3c2c1COC [EDC-II-044]		323	293					1000		15.4

Compound	Ki (α6β3γ2 GABAA/BzR; Ki α6) [nM]	Ki (α5β3γ2 GABAA/BzR; read-out: Ki α5) [nM]	Ki (α3β3γ2 GABAA/BzR; read-out: Ki α3) [nM]	Ki (α5β3γ2 GABAA/BzR; Ki α5) [nM]	Ki (α2β3γ2 GABAA/BzR; Ki α2) [nM]	Ki (α1β3γ2 GABAA/BzR; Ki α1) [nM]	Ki (α3β3γ2 GABAA/BzR; Ki α3) [nM]	Ki (α6β3γ2 GABAA/BzR; read-out: Ki α6) [nM]	Ki (α2β3γ2 GABAA/BzR; read-out: Ki α2) [nM]	Ki (α1β3γ2 GABAA/BzR; read-out: Ki α1) [nM]
C#Cc1ccc2c(c1)C(c1ccccc1F)=NCc1c(C(=O)NC)ncn1-2 [HJ-I-037]		0.818	28.3						8.13	15.1
C#Cc1ccc2c(c1)C(c1ccccc1)=NCC(NC)=N2 [Hz148]		256						5000	5000	11
O=C1CN=C(c2cccs2)c2cc(Br)ccc2N1 [JC184]		6.71							10.5	9.61
C#Cc1ccc2c(c1)C(c1cccs1)=NCC(=O)N2 [JC208]		5.04							18.9	22.4
C#Cc1ccc2c(c1)C(c1cccs1)=NCC(=O)N2C [JC222]		17.6							45.1	86.7
CC(C)(C)OC(=O)c1ncn2c1C1CCCN1C(=O)c1cc(Br)ccc1-2 (stereo not shown) [JYI-01]		10.6	96					2.88		59.2
C#Cc1ccc2c(c1)C(=O)N1CCCC1c1c(C(=O)OC(C)(C)C)ncn1-2 (stereo not shown) [JYI-03]		0.954						3.34	107	185
C=Cc1ccc2c(c1)C(=O)N1CCC[C@H]1c1c(C(=O)OC(C)(C)C)ncn1-2 [JYI-04]		0.51						1.57	16	28.3
O=C(OCC(F)(F)F)c1ncn2c1C1CCCN1C(=O)c1cc(Br)ccc1-2 (stereo not shown) [JYI-10]		12.3						23	368	5000
C[Si](C)(C)C#Cc1ccc2c(c1)C(=O)N1CCC[C@H]1c1c(C(=O)OCC(F)(F)F)ncn1-2 [JYI-11]		648						3.97	5000	5000
C=Cc1ccc2c(c1)C(=O)N1CCC[C@H]1c1c(C(=O)OCC(F)(F)F)ncn1-2 [JYI-12]		4.5						6.8	39	91
O=C(OCC(F)(F)F)c1ncn2c1C1CCCN1C(=O)c1cc(-c3ccco3)ccc1-2 (stereo not shown) [JYI-13]		16						8.38	63.7	5000
O=C(OCC(F)(F)F)c1ncn2c1[C@@H]1CCCN1C(=O)c1ccccc1-2 [JYI-14]		13						565	25	32
C#Cc1ccc2c(c1)C(=O)N1CCC[C@H]1c1c(C(=O)OCC(F)(F)F)ncn1-2 [JYI-15]		4.8						22	812	205
CC(C)(C)OC(=O)c1ncn2c1[C@@H]1CCCN1C(=O)c1cc(-c3cccs3)ccc1-2 [JYI-19]		34						12.7	205	2.18
CCOC(=O)c1ncn2c1CN=C(c1ccccc1F)c1cc(Br)ccc1-2 [JYI-32]		2.92						52.2	4.96	3.07
O=C1CN=C(c2ccccc2F)c2cc(Br)ccc2N1 [JYI-42]		0.256	0.278						0.146	0.257
O=C(O)c1ncn2c1CN=C(c1ccccc1F)c1cc(Br)ccc1-2 [JYI-47]		0.427	0.511						2.28	2.76
CCOC(=O)c1ncn2c1CN=C(c1ccccc1F)c1cc(-c3ccco3)ccc1-2 [JYI-48]		31.3	12.8						90.7	75.6

Compound	Ki (α6β3γ2 GABAA/BzR; Ki α6) [nM]	Ki (α5β3γ2 GABAA/BzR; read-out: Ki α5) [nM]	Ki (α3β3γ2 GABAA/BzR; read-out: Ki α3) [nM]	Ki (α5β3γ2 GABAA/BzR; Ki α5) [nM]	Ki (α2β3γ2 GABAA/BzR; Ki α2) [nM]	Ki (α1β3γ2 GABAA/BzR; Ki α1) [nM]	Ki (α3β3γ2 GABAA/BzR; Ki α3) [nM]	Ki (α6β3γ2 GABAA/BzR; read-out: Ki α6) [nM]	Ki (α2β3γ2 GABAA/BzR; read-out: Ki α2) [nM]	Ki (α1β3γ2 GABAA/BzR; read-out: Ki α1) [nM]
O=C(OCC(F)(F)F)c1ncn2c1CN=C(c1ccccc1F)c1cc(Br)ccc1-2 [JYI-49]		6.7						3390	2.38	1.87
C[Si](C)(C)C#Cc1ccc2c(c1)C(c1ccccc1F)=NCC(=O)N2 [JYI-55]		24.8	0.504							41.4
Cc1nnc2n1-c1ccc(Br)cc1C(c1ccccc1F)=NC2 [JYI-57]		0.036	0.131						0.076	0.076
C#Cc1ccc2c(c1)C(c1ccccc1F)=NCc1c(C(=O)OCC(F)(F)F)ncn1-2 [JYI-59 (C22H13N3O2F4)]								5000	2.6	
C#Cc1ccc2c(c1)C(c1ccccc1F)=NCC(=O)N2 [JYI-60 (C17H11N2OF)]		1.7	4.3					5000		
C#Cc1ccc2c(c1)C(c1ccccc1F)=NCc1nnc(C)n1-2 [JYI-70]		0.56						5000	2.1	6.3
Cc1nnc2n1-c1ccc(C#C[Si](C)(C)C)cc1C(c1ccccc1F)=NC2 [JYI-72]		11.5							18.5	48.5
CCOC(=O)c1ncc2[nH]c3cc(OC)c(OC)cc3c2c1CC [MSR-I-032]			4					74.9	18.7	6.2
CN(C)C=C1N=C2CN=C(c3ccccc3)c3cc(Br)ccc3N2C1=O [PS-1-34B]			3.93						4.2	
CN1CCN(C=C2N=C3CN=C(c4ccccc4)c4cc(Br)ccc4N3C2=O)CC1 [PS-1-35]			24.4						16	
COc1ccc(-n2nc3c4cc(Cl)ccc4[nH]cc-3c2=O)cc1 [PZII-028]		0.32	0.2					1.9		0.2
COc1ccc(-n2nc3c4ccc(OC)cc4[nH]cc-3c2=O)cc1 [PZII-029]		0.52	0.79					10		0.34
C#Cc1ccc2c(c1)C(c1ccccc1F)=N[C@@H](C)c1c(C(=O)OCC)ncn1-2 [SH-O53-S-CH3-2′F]	5000									
COCc1ncn2c1CN(C)C(=O)c1cc(Cl)ccc1-2 [SH-TSC-1]		6.18	328						180	362
CC(C)(C)OC(=O)c1cc2c(cn1)[nH]c1ccccc12 [SH-TSC-2]		69.3	0.035						0.0419	
C#Cc1ccc2[nH]c3cnc(C(=O)OC(C)(C)C)cc3c2c1 [WY-TSC-4]		51	1.63							
Cc1nnc2n1-c1ccc(Br)cc1C(c1ccccc1)=NC2 [XLi268]		0.624							0.686	2.81
C#Cc1ccc2c(c1)C(c1ccccc1Cl)=NCC(=O)N2C [XLi352]		1.96							0.991	1.56
